Like-named read-outs stand apart in the source and are kept apart here.
Columns and labels:
[1] = biological target: CDK6/Cyclin D1 (Homo sapiens, UniProt Q00534); assay: NanoBRET live-cell target engagement, NanoLuc-CDK6/Cyclin D1 in HEK-293; assay type: binding; conditions: 10µM
[2] = biological target: CDK18/Cyclin Y (Homo sapiens, UniProt Q07002); assay: NanoBRET live-cell target engagement, CDK18-NanoLuc/Cyclin Y in HEK-293; assay type: binding; conditions: 10µM
[3] = biological target: CDK11B/Cyclin L2 (Homo sapiens, UniProt P21127); assay: NanoBRET live-cell target engagement, CDK11B-NanoLuc/Cyclin L2 in HEK-293; assay type: binding; conditions: 10µM
[4] = biological target: CDK13/Cyclin K (Homo sapiens, UniProt Q14004); assay: NanoBRET live-cell target engagement, CDK13-NanoLuc/Cyclin K in HEK-293; assay type: binding; conditions: 10µM
[5] = biological target: CDK8/Cyclin C (Homo sapiens, UniProt P49336); assay: NanoBRET live-cell target engagement, NanoLuc-CDK8/Cyclin C in HEK-293; assay type: binding; conditions: for IC50: read-out: CDK8/C IC50
[6] = biological target: CDK12/Cyclin K (Homo sapiens, UniProt Q9NYV4); assay: NanoBRET live-cell target engagement, CDK12-NanoLuc/Cyclin K in HEK-293; assay type: binding; conditions: 10µM
[7] = biological target: T1, CDK11A/Cyclin L2 (Homo sapiens, UniProt Q9UQ88); assay: NanoBRET live-cell target engagement, CDK11A-NanoLuc/Cyclin L2 in HEK-293; assay type: binding; conditions: 10µM
T1 sequence (Q9UQ88 1-783): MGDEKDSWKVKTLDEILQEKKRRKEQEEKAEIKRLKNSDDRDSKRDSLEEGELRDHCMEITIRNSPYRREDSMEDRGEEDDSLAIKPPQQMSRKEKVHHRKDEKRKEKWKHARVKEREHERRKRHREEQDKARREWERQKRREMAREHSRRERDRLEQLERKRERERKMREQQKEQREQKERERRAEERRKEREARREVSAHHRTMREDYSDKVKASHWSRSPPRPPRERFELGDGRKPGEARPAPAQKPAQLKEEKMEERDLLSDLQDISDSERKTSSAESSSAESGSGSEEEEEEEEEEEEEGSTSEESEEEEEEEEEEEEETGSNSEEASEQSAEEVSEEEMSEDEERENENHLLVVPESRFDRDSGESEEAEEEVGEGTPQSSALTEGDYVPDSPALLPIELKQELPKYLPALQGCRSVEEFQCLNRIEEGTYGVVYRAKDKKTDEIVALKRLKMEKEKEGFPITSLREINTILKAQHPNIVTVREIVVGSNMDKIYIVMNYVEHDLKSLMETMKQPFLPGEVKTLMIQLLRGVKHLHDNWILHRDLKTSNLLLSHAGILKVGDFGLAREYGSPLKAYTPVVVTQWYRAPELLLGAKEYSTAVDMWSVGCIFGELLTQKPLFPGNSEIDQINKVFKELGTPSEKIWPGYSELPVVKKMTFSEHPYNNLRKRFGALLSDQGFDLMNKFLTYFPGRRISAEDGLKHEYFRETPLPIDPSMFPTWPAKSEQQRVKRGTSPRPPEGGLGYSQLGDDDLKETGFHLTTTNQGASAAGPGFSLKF

[8] = biological target: CDK5/CDK5R1 (Homo sapiens, UniProt Q00535); assay: NanoBRET live-cell target engagement, CDK5-NanoLuc/CDK5R1 in HEK-293; assay type: binding; conditions: 10µM
[9] = biological target: CDK16/Cyclin Y (Homo sapiens, UniProt Q00536); assay: NanoBRET live-cell target engagement, CDK16-NanoLuc/Cyclin Y in HEK-293; assay type: binding; conditions: 10µM
[10] = biological target: CDK14/Cyclin Y (Homo sapiens, UniProt O94921); assay: NanoBRET live-cell target engagement, CDK14-NanoLuc/Cyclin Y in HEK-293; assay type: binding; conditions: 10µM
[11] = biological target: CDK9/Cyclin K (Homo sapiens, UniProt P50750); assay: NanoBRET live-cell target engagement, NanoLuc-CDK9/Cyclin K in HEK-293; assay type: binding; conditions: 10µM
[12] = biological target: CDK10/Cyclin L2 (Homo sapiens, UniProt Q15131); assay: NanoBRET live-cell target engagement, CDK10-NanoLuc/Cyclin L2 in HEK-293; conditions: 10µM
[13] = biological target: CDK17/Cyclin Y (Homo sapiens, UniProt Q00537); assay: NanoBRET live-cell target engagement, CDK17-NanoLuc/Cyclin Y in HEK-293; assay type: binding; conditions: 10µM
[14] = biological target: CDK7 (Homo sapiens, UniProt P50613); assay: NanoBRET live-cell target engagement, NanoLuc-CDK7 in HEK-293; assay type: binding; conditions: 10µM
[15] = biological target: CDK15/Cyclin Y (Homo sapiens, UniProt Q96Q40); assay: NanoBRET live-cell target engagement, NanoLuc-CDK15/Cyclin Y in HEK-293; assay type: binding; conditions: 10µM
[16] = biological target: CDK4/Cyclin D1 (Homo sapiens, UniProt P11802); assay: NanoBRET live-cell target engagement, NanoLuc-CDK4/Cyclin D1 in HEK-293; assay type: binding; conditions: 10µM
[17] = biological target: CDK1/Cyclin E1 (Homo sapiens, UniProt P06493); assay: NanoBRET live-cell target engagement, CDK1-NanoLuc/Cyclin E1 in HEK-293; assay type: binding; conditions: 10µM
[18] = biological target: CDK20/Cyclin H (Homo sapiens, UniProt Q8IZL9); assay: NanoBRET live-cell target engagement, NanoLuc-CDK20/Cyclin H in HEK-293; assay type: binding; conditions: 10µM
[19] = biological target: CDK3/Cyclin E1 (Homo sapiens, UniProt Q00526); assay: NanoBRET live-cell target engagement, CDK3-NanoLuc/Cyclin E1 in HEK-293; assay type: binding; conditions: 10µM
[20] = biological target: CDK2/Cyclin E1 (Homo sapiens, UniProt P24941); assay: NanoBRET live-cell target engagement, CDK2-NanoLuc/Cyclin E1 in HEK-293; assay type: binding; conditions: 10µM
[21] = biological target: CDK19/Cyclin C (Homo sapiens, UniProt Q9BWU1); assay: NanoBRET live-cell target engagement, NanoLuc-CDK19/Cyclin C in HEK-293

Chain of CDK12/Cyclin K (Q9NYV4 1-1481 isoform Q9NYV4-2): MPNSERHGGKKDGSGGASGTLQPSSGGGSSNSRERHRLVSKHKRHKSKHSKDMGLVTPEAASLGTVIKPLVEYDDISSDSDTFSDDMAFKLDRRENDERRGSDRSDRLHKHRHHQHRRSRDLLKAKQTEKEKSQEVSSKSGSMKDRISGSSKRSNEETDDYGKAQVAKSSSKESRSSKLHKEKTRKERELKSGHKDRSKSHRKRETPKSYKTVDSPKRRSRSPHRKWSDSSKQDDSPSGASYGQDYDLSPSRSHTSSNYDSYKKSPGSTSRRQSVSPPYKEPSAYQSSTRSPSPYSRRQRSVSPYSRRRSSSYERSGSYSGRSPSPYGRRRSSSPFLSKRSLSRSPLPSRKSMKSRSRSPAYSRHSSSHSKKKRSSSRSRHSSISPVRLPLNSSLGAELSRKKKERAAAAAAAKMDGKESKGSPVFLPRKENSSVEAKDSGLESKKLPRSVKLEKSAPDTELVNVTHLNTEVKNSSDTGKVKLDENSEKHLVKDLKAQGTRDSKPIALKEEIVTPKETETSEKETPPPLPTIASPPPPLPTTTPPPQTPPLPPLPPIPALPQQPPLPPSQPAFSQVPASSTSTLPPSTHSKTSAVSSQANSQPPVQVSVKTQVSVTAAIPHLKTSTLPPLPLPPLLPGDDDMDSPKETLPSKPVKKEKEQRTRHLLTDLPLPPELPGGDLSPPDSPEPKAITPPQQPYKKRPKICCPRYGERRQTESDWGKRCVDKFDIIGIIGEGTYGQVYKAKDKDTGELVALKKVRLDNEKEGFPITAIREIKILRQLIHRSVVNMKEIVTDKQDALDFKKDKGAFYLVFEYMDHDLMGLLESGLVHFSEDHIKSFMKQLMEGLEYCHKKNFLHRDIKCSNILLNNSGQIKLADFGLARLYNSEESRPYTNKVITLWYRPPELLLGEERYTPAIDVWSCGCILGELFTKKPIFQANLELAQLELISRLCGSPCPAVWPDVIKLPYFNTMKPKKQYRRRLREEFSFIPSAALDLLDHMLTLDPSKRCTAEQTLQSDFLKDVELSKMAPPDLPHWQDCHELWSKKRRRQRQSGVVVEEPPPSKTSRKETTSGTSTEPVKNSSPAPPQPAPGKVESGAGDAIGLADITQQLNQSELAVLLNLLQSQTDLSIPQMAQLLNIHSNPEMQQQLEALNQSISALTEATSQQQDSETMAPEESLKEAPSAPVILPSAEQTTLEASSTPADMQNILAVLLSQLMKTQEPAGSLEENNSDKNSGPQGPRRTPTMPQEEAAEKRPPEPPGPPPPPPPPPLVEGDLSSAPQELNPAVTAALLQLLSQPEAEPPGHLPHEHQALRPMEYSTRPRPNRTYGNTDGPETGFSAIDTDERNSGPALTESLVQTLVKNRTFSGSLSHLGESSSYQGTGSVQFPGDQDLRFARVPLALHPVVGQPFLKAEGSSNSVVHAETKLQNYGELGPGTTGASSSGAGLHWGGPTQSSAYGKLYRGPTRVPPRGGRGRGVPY
Chain of CDK12/Cyclin K (O75909 whole entry partner): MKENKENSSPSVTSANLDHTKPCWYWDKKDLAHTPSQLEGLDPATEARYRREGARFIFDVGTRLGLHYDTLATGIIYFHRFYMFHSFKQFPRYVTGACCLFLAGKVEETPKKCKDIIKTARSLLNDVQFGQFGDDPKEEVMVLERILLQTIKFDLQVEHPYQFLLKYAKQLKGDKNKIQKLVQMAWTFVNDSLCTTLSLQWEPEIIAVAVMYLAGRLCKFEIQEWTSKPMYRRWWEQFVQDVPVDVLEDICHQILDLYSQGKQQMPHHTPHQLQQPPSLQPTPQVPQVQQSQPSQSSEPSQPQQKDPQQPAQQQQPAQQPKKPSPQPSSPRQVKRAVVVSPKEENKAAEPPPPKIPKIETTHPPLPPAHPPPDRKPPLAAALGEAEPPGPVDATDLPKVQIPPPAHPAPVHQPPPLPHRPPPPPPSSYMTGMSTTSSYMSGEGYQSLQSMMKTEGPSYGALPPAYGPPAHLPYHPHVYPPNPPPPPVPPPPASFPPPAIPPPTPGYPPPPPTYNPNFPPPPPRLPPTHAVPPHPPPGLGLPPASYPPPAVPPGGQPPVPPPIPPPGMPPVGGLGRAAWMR
Chain of CDK4/Cyclin D1 (P11802 whole entry): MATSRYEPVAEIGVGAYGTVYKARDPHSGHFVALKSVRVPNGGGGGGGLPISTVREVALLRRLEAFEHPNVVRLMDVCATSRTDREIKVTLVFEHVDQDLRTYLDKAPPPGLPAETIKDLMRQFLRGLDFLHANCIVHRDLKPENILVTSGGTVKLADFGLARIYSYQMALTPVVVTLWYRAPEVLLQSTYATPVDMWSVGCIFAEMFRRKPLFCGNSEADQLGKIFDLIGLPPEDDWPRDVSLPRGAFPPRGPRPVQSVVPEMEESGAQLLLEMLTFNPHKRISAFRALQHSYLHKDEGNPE
Chain of CDK4/Cyclin D1 (P24385 whole entry partner): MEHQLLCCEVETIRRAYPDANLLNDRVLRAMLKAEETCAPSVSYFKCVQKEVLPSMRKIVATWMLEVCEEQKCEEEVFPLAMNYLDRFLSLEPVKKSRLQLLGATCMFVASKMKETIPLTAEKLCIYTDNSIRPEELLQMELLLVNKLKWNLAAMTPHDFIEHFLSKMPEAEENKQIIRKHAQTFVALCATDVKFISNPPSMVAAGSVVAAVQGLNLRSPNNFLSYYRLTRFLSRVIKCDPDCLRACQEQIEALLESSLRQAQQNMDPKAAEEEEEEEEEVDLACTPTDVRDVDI
Chain of CDK13/Cyclin K (O75909 whole entry): as the sequence (O75909 whole entry partner) above
Chain of CDK13/Cyclin K (Q14004 other isoform, or with tags, fused parts or gaps): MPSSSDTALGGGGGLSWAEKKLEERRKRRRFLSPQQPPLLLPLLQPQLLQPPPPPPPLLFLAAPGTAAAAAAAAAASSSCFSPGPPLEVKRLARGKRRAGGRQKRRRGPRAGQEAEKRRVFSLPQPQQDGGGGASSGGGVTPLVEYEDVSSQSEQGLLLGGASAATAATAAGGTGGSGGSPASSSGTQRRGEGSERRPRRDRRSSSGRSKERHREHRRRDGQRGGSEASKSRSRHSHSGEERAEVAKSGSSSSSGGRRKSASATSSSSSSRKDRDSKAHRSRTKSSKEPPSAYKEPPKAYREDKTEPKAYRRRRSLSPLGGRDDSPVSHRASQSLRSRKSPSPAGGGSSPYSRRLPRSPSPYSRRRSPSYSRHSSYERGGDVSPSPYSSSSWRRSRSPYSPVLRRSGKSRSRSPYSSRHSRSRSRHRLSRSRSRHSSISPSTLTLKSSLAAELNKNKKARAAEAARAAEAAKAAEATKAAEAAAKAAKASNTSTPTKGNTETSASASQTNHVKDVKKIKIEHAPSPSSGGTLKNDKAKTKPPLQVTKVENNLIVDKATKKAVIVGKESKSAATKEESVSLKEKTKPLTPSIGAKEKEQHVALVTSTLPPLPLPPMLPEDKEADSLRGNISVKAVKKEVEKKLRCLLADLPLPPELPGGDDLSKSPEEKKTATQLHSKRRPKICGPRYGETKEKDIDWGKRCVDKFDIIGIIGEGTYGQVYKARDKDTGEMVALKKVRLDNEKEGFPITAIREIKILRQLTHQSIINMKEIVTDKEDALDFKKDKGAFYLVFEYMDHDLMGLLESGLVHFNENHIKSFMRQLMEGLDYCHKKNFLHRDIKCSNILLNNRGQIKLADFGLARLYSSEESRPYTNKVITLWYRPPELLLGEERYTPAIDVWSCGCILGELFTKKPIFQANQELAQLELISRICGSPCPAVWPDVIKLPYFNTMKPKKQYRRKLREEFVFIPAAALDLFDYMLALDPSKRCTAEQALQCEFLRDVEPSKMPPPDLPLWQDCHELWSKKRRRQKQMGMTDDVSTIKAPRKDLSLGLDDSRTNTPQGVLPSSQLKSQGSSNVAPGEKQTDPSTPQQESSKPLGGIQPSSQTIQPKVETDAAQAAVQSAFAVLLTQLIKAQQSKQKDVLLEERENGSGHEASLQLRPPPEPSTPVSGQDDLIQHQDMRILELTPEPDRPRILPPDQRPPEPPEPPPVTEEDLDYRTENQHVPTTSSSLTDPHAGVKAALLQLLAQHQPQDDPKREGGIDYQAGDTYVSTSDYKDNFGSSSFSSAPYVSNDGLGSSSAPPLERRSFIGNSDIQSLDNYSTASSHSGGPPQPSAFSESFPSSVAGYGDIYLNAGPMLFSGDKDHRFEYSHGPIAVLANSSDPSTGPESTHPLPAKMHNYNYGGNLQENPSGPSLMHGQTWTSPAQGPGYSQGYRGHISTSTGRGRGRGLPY
Chain of CDK8/Cyclin C (P49336 whole entry): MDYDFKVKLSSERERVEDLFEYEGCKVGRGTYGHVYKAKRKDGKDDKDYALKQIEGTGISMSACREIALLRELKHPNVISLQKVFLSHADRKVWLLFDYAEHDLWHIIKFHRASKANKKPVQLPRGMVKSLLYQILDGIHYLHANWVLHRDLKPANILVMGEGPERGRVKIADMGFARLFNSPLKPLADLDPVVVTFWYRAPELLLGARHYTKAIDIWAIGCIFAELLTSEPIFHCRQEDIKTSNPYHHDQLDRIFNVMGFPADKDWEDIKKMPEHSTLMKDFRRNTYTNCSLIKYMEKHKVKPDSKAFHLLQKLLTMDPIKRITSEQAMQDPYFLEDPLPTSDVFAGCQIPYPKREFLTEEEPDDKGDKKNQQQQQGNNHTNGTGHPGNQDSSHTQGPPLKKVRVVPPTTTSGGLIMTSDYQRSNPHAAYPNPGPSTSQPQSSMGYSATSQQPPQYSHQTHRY
Chain of CDK8/Cyclin C (P24863 whole entry partner): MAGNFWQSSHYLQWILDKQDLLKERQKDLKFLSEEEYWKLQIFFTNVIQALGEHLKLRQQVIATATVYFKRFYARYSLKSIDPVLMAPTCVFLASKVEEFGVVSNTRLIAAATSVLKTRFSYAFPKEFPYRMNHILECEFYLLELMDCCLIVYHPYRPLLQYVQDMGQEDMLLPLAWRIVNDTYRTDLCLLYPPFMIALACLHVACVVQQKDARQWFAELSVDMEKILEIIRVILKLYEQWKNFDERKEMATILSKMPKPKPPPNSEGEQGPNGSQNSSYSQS

Cc1c(Br)c(Br)c2c3c1nc(N1CCNCC1)n3CCC2.Cl [SEL 120-34A]
CDK6/D1 Inhibition at 10µM (%) ([1]; average of experiments): 31.6%
CDK6/D1 Inhibition at 10µM (%) ([1]; independent experiment 1): 10.1%
CDK6/D1 Inhibition at 10µM (%) ([1]; independent experiment 2): 53.1%
CDK18/Y Inhibition at 10µM (%) ([2]; average of experiments): 39.4%
CDK18/Y Inhibition at 10µM (%) ([2]; independent experiment 1): 47.0%
CDK18/Y Inhibition at 10µM (%) ([2]; independent experiment 2): 31.9%
CDK11b/L2 Inhibition at 10µM (%) ([3]; average of experiments): 38.1%
CDK11b/L2 Inhibition at 10µM (%) ([3]; independent experiment 1): 35.0%
CDK11b/L2 Inhibition at 10µM (%) ([3]; independent experiment 2): 41.2%
CDK13/K Inhibition at 10µM (%) ([4]; average of experiments): 36.8%
CDK13/K Inhibition at 10µM (%) ([4]; independent experiment 1): 29.4%
CDK13/K Inhibition at 10µM (%) ([4]; independent experiment 2): 44.2%
CDK8/C Inhibition at 10µM (%) ([5]; average of experiments): 97.3%
CDK8/C Inhibition at 10µM (%) ([5]; independent experiment 1): 96.1%
CDK8/C Inhibition at 10µM (%) ([5]; independent experiment 2): 98.6%
IC50 ([5]; average (± SEM where n=3)): 75 nM
IC50 ([5]; independent experiment 1): 73 nM
IC50 ([5]; independent experiment 2): 77 nM
CDK12/K Inhibition at 10µM (%) ([6]; average of experiments): 44.4%
CDK12/K Inhibition at 10µM (%) ([6]; independent experiment 1): 40.8%
CDK12/K Inhibition at 10µM (%) ([6]; independent experiment 2): 48.0%
CDK11a/L2 Inhibition at 10µM (%) ([7]; average of experiments): 43.7%
CDK11a/L2 Inhibition at 10µM (%) ([7]; independent experiment 1): 31.1%
CDK11a/L2 Inhibition at 10µM (%) ([7]; independent experiment 2): 56.3%
CDK5/CDK5R1 Inhibition at 10µM (%) ([8]; average of experiments): 46.5%
CDK5/CDK5R1 Inhibition at 10µM (%) ([8]; independent experiment 1): 31.2%
CDK5/CDK5R1 Inhibition at 10µM (%) ([8]; independent experiment 2): 61.8%
CDK16/Y Inhibition at 10µM (%) ([9]; independent experiment 1): 51.2%
CDK16/Y Inhibition at 10µM (%) ([9]; independent experiment 2): 12.7%
CDK14/Y Inhibition at 10µM (%) ([10]; average of experiments): 26.1%
CDK14/Y Inhibition at 10µM (%) ([10]; independent experiment 1): 21.7%
CDK14/Y Inhibition at 10µM (%) ([10]; independent experiment 2): 30.4%
CDK9/K Inhibition at 10µM (%) ([11]; average of experiments): 71.2%
CDK9/K Inhibition at 10µM (%) ([11]; independent experiment 1): 54.9%
CDK9/K Inhibition at 10µM (%) ([11]; independent experiment 2): 87.6%
CDK10/L2 Inhibition at 10µM (%) ([12]; average of experiments): 33.9%
CDK10/L2 Inhibition at 10µM (%) ([12]; independent experiment 1): 26.3%
CDK10/L2 Inhibition at 10µM (%) ([12]; independent experiment 2): 41.4%
CDK17/Y Inhibition at 10µM (%) ([13]; average of experiments): 38.7%
CDK17/Y Inhibition at 10µM (%) ([13]; independent experiment 1): 45.5%
CDK17/Y Inhibition at 10µM (%) ([13]; independent experiment 2): 32.0%
CDK7 Inhibition at 10µM (%) ([14]; average of experiments): 37.0%
CDK7 Inhibition at 10µM (%) ([14]; independent experiment 1): 34.4%
CDK7 Inhibition at 10µM (%) ([14]; independent experiment 2): 39.7%
CDK15/Y Inhibition at 10µM (%) ([15]; average of experiments): 37.3%
CDK15/Y Inhibition at 10µM (%) ([15]; independent experiment 1): 38.3%
CDK15/Y Inhibition at 10µM (%) ([15]; independent experiment 2): 36.3%
CDK4/D1 Inhibition at 10µM (%) ([16]; average of experiments): 37.4%
CDK4/D1 Inhibition at 10µM (%) ([16]; independent experiment 1): 12.4%
CDK4/D1 Inhibition at 10µM (%) ([16]; independent experiment 2): 62.4%
CDK1/E1 Inhibition at 10µM (%) ([17]; average of experiments): 37.6%
CDK1/E1 Inhibition at 10µM (%) ([17]; independent experiment 1): 21.0%
CDK1/E1 Inhibition at 10µM (%) ([17]; independent experiment 2): 54.1%
CDK20/H Inhibition at 10µM (%) ([18]; independent experiment 1): 7.8%
CDK20/H Inhibition at 10µM (%) ([18]; independent experiment 2): 31.3%
CDK3/E1 Inhibition at 10µM (%) ([19]; average of experiments): 33.7%
CDK3/E1 Inhibition at 10µM (%) ([19]; independent experiment 1): 26.5%
CDK3/E1 Inhibition at 10µM (%) ([19]; independent experiment 2): 40.8%
CDK2/E1 Inhibition at 10µM (%) ([20]; average of experiments): 22.7%
CDK2/E1 Inhibition at 10µM (%) ([20]; independent experiment 1): 24.3%
CDK2/E1 Inhibition at 10µM (%) ([20]; independent experiment 2): 21.2%
CDK19/C Inhibition at 10µM (%) ([21]; average of experiments): 99.2%
CDK19/C Inhibition at 10µM (%) ([21]; independent experiment 1): 96.4%
CDK19/C Inhibition at 10µM (%) ([21]; independent experiment 2): 102.0%
IC50 ([21]; read-out: CDK19/C IC50, independent experiment 1): 120 nM
IC50 ([21]; read-out: CDK19/C IC50, independent experiment 2): 140 nM
IC50 ([21]; read-out: CDK19/Y IC50, average (± SEM where n=3)): 130 nM

From paper PMC7265341, “Quantifying CDK inhibitor selectivity in live cells” (Nature Communications, 2020)
